Data from paper PMC10837065 (Current Research in Insect Science, 2024).

Key:
PficOrco/PficOR6 = test: Fluo4-AM calcium fluorescence, FlexStation-3, HEK293 cells; type: cell-based, Planococcus ficus; conditions: agonist; doxycycline-induced cells; 0.5 % DMSO
PficOrco/PficOR8 = test: as above; type: cell-based, Planococcus ficus; conditions: agonist; doxycycline-induced cells; 0.5 % DMSO

EC50 (PficOrco/PficOR6)	EC50 (PficOrco/PficOR8)	Structure (SMILES)
4.6 µM	52.6 µM	C=C(C)C(CC=C(C)C)COC(=O)C=C(C)C (stereo not drawn) [lavandulyl senecioate]
	8.6 µM	CCCC(=O)OCC(CC=C(C)C)=C(C)C [2-isopropyliden-5-methyl-4-hexen-1-yl butyrate]
